Laboratory results from ChEMBL document CHEMBL1146810, “Synthesis of a bromotyrosine-derived natural product inhibitor of mycothiol-S-conjugate amidase” (Bioorg Med Chem Lett, 2004).

Assays:
[1] = Inhibitory activity against AcGI deacetylase was determined
[2] = test system: Mycobacterium tuberculosis; test: Inhibitory activity against mycothiol-S-conjugate amidase (MCA) was determined

With `NCCCOc1c(Br)cc(C/C(=N\O)C(=O)NCCCCN=C(N)N)cc1Br` the Inhibition [1] was 150 µM and the Inhibition [2] was 30 µM.
